Source: US20220153746A1, “NITROGEN OXIDE-DONATING PDE-5 AND/OR PDE-6 INHIBITOR COMPOUNDS, AND USES THEREOF” (ILDONG PHARMACEUTICAL CO., LTD., priority 2020, published 2022)
Where two headings read alike, the source gives them in different places. Blank lines part the entries; values can stand above or below the compound they belong to.

Columns and labels:
human PDE-6C = human PDE-6C (Homo sapiens, UniProt P51160); assay: Human PDE-6C inhibition assay (fluorescence polarization, FAM-cGMP); assay type: biochemical
Sequence of human PDE-6C (P51160 whole entry): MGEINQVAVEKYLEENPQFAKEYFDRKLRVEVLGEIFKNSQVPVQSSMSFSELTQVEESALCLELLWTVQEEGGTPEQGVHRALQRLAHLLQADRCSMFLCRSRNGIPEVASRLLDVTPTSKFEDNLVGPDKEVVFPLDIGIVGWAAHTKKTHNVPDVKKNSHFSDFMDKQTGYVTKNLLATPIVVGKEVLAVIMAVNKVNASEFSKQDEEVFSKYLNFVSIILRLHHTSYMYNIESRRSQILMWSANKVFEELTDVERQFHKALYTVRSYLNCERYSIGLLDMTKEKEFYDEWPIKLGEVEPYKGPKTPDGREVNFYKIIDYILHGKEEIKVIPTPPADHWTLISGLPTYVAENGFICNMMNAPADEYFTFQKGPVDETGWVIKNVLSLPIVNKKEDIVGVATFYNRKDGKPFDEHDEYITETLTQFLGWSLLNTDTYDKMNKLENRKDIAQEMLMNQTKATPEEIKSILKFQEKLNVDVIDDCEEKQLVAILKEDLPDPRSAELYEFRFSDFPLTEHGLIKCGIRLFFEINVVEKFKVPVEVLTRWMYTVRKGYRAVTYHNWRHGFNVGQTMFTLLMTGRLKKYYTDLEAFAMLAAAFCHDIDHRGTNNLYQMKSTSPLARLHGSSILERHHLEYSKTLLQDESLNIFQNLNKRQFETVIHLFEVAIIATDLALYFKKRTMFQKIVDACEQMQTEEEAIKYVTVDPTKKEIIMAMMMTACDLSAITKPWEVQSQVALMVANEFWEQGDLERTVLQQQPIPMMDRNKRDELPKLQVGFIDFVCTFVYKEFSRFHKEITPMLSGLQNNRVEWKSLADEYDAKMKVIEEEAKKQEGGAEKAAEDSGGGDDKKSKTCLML

human PDE-5A1 = human PDE-5A1 (Homo sapiens, UniProt O76074); assay: Human PDE-5A1 inhibition assay (fluorescence polarization, FAM-cGMP); assay type: biochemical

SMILES: CCCc1nn(C)c2c(=O)[nH]c(-c3cc(S(=O)(=O)N4CC(CO)C4)ccc3OCC)nc12 [Compound 2, 5-(2-ethoxy-5-((3-(hydroxymethyl)azetidin-1-yl)sulfonyl)phenyl)-1-methyl-3-propyl-1,6-dihydro-7H-pyrazolo[4,3-d]pyrimidin-7-one]
IC50 (human PDE-6C; read-out: IC50 (μM) PDE6C): 0.01 to 0.1 µM
IC50 (human PDE-5A1; read-out: IC50 (μM) PDE5A1): 0.01 to 0.1 µM

SMILES: CCCc1nn(C)c2c(=O)[nH]c(-c3cc(S(=O)(=O)N4CC(N(C)CCOC(=O)CCCCC(CO[N+](=O)[O-])O[N+](=O)[O-])C4)ccc3OCC)nc12 (stereo not drawn) [Compound 70, 2-((1-((4-ethoxy-3-(1-methyl-7-oxo-3-propyl-6,7-dihydro-1H-pyrazolo[4,3-d]pyrimidin-5-yl)phenyl)sulfonyl)azetidin-3-yl)(methyl)amino)ethyl 6,7-bis(nitrooxy)heptanoate]
IC50 (human PDE-6C): < 0.01 µM
IC50 (human PDE-5A1): < 0.01 µM

SMILES: CCCc1nn(C)c2c(=O)[nH]c(-c3cc(S(=O)(=O)N4CC(N(C)CCCO)C4)ccc3OCC)nc12 [Compound 13, 5-(2-ethoxy-5-((3-((3-hydroxypropyl)(methyl)amino)azetidin-1-yl)sulfonyl)phenyl)-1-methyl-3-propyl-1,6-dihydro-7H-pyrazolo[4,3-d]pyrimidin-7-one]
IC50 (human PDE-6C; read-out: IC50 (μM) PDE6C): 0.01 to 0.1 µM
IC50 (human PDE-5A1; read-out: IC50 (μM) PDE5A1): < 0.01 µM

SMILES: CCCc1nn(C)c2c(=O)[nH]c(-c3cc(S(=O)(=O)N4CC(CN5CC(CCO)C5)C4)ccc3OCC)nc12 [Compound 29, 5-(2-ethoxy-5-((3-((3-(2-hydroxyethyl)azetidin-1-yl)methyl)azetidin-1-yl)sulfonyl)phenyl)-1-methyl-3-propyl-1,6-dihydro-7H-pyrazolo[4,3-d]pyrimidin-7-one]
IC50 (human PDE-6C; read-out: IC50 (μM) PDE6C): 0.01 to 0.1 µM
IC50 (human PDE-5A1; read-out: IC50 (μM) PDE5A1): 0.01 to 0.1 µM

SMILES: CCCc1nn(C)c2c(=O)[nH]c(-c3cc(S(=O)(=O)NC4CN(CCCCO)C4)ccc3OCC)nc12 [Compound 8, 4-ethoxy-N-(1-(4-hydroxybutyl)azetidin-3-yl)-3-(1-methyl-7-oxo-3-propyl-6,7-dihydro-1H-pyrazolo[4,3-d]pyrimidin-5-yl)benzenesulfonamide]
IC50 (human PDE-6C; read-out: IC50 (μM) PDE6C): 0.01 to 0.1 µM
IC50 (human PDE-5A1; read-out: IC50 (μM) PDE5A1): 0.01 to 0.1 µM

SMILES: CCCc1nn(C)c2c(=O)[nH]c(-c3cc(S(=O)(=O)N4CC(N(C)CCO[N+](=O)[O-])C4)ccc3OCC)nc12 [Compound 23, 2-((1-((4-ethoxy-3-(1-methyl-7-oxo-3-propyl-6,7-dihydro-1H-pyrazolo[4,3-d]pyrimidin-5-yl)phenyl)sulfonyl)azetidin-3-yl)(methyl)amino)ethyl nitrate]
IC50 (human PDE-6C; read-out: IC50 (μM) PDE6C): < 0.01 µM
IC50 (human PDE-5A1; read-out: IC50 (μM) PDE5A1): < 0.01 µM

SMILES: CCCc1nn(C)c2c(=O)[nH]c(-c3cc(S(=O)(=O)NC4CN(CCCO)C4)ccc3OCC)nc12 [Compound 7, 4-ethoxy-N-(1-(3-hydroxypropyl)azetidin-3-yl)-3-(1-methyl-7-oxo-3-propyl-6,7-dihydro-1H-pyrazolo[4,3-d]pyrimidin-5-yl)benzenesulfonamide]
IC50 (human PDE-6C; read-out: IC50 (μM) PDE6C): 0.01 to 0.1 µM
IC50 (human PDE-5A1; read-out: IC50 (μM) PDE5A1): 0.01 to 0.1 µM

Results, then the compound that gave them:

IC50 (human PDE-6C; read-out: IC50 (μM) PDE6C): < 0.01 µM
IC50 (human PDE-5A1; read-out: IC50 (μM) PDE5A1): < 0.01 µM
SMILES: CCCc1nn(C)c2c(=O)[nH]c(-c3cc(S(=O)(=O)N4CC(CCCOC(=O)CCCCO[N+](=O)[O-])C4)ccc3OCC)nc12 [Compound 71, 3-(1-((4-ethoxy-3-(1-methyl-7-oxo-3-propyl-6,7-dihydro-1H-pyrazolo[4,3-d]pyrimidin-5-yl)phenyl)sulfonyl)azetidin-3-yl)propyl 5-(nitrooxy)pentanoate]

IC50 (human PDE-6C; read-out: IC50 (μM) PDE6C): < 0.01 µM
IC50 (human PDE-5A1; read-out: IC50 (μM) PDE5A1): < 0.01 µM
SMILES: CCCc1nn(C)c2c(=O)[nH]c(-c3cc(S(=O)(=O)N4CC(N(C)CCCCO)C4)ccc3OCC)nc12 [Compound 14, 5-(2-ethoxy-5-((3-((4-hydroxybutyl)(methyl)amino)azetidin-1-yl)sulfonyl)phenyl)-1-methyl-3-propyl-1,6-dihydro-7H-pyrazolo[4,3-d] pyrimidin-7-one]

IC50 (human PDE-6C; read-out: IC50 (μM) PDE6C): < 0.01 µM
IC50 (human PDE-5A1; read-out: IC50 (μM) PDE5A1): 0.01 to 0.1 µM
SMILES: CCCc1nn(C)c2c(=O)[nH]c(-c3cc(S(=O)(=O)N4CC(OCCCO[N+](=O)[O-])C4)ccc3OCC)nc12 [Compound 35, 3-((1-((4-ethoxy-3-(1-methyl-7-oxo-3-propyl-6,7-dihydro-1H-pyrazolo[4,3-d]pyrimidin-5-yl)phenyl)sulfonyl)azetidin-3-yl)oxy)propyl nitrate]

IC50 (human PDE-6C; read-out: IC50 (μM) PDE6C): < 0.01 µM
IC50 (human PDE-5A1; read-out: IC50 (μM) PDE5A1): < 0.01 µM
SMILES: CCCc1nn(C)c2c(=O)[nH]c(-c3cc(S(=O)(=O)N4CC(NCCOC(=O)CCCCO[N+](=O)[O-])C4)ccc3OCC)nc12 [Compound 66, 2-((1-((4-ethoxy-3-(1-methyl-7-oxo-3-propyl-6,7-dihydro-1H-pyrazolo[4,3-d]pyrimidin-5-yl)phenyl)sulfonyl)azetidin-3-yl)amino)ethyl 5-(nitrooxy)pentanoate]

IC50 (human PDE-6C; read-out: IC50 (μM) PDE6C): < 0.01 µM
IC50 (human PDE-5A1; read-out: IC50 (μM) PDE5A1): < 0.01 µM
SMILES: CCCc1nn(C)c2c(=O)[nH]c(-c3cc(S(=O)(=O)N4CC(CCO)C4)ccc3OCC)nc12 [Compound 3, 5-(2-ethoxy-5-((3-(2-hydroxyethyl)azetidin-1-yl)sulfonyl)phenyl)-1-methyl-3-propyl-1,6-dihydro-7H-pyrazolo[4,3-d]pyrimidin-7-one]
